# Measurements reported in patent publication US20230277602A1, “COMBINATION THERAPY FOR TREATING OR PREVENTING CANCER” (4D Pharma Research Limited, priority 2018, published 2023).
# Tested on: immature dendritic cells
# Experiment: Cytokine production in immature dendritic cells
# Type: cell-based
# Conditions: MRX518 10^7/ml, LPS 100 ng/ml, compared to the negative control, FIGS. 4a-d
# Method: A monocyte population was isolated from peripheral blood mononuclear cells (PBMCs). The monocyte cells were subsequently differentiated into immature dendritic cells. The immature dendritic cells were plated out at 200,000 cells/well and incubated with MRX518 at a final concentration of 10^7/ml, with the optional addition of LPS at a final concentration of 100 ng/ml. The negative control involved incubating the cells with RPMI media alone and positive controls incubated the cells with LPS at a final concentration of 100 ng/ml. The cytokine content of the cells was then analysed.
substance,measurement,value
lipopolysaccharide [LPS],level of IL-6,increase
same,level of TNF-α,increase
